Assay results reported in patent US20240400564A1 (Syndax Pharmaceuticals, Inc, priority 2021, published 2024).

System: MLLr leukemia cell line MV4-11
Experiment: Cell proliferation assay MV4;11 (CellTiter-Glo, 72 hours)
Type: cell-based
Settings: Homo sapiens; MV4-11 cells, 72 hours, CellTiter-Glo; read-out: MV4; 11 IC50
Method: Compounds were evaluated for its capacity to inhibit the proliferation of the MLLr leukemia cell line MV4-11 that harbors an MLL1-AF4 fusion protein. MV4-11 cells were cultured for 72 hours with limiting dilutions of compounds and viability was measured using CellTiter-Glo.
Compounds were dissolved to obtain as 10 mM solution in DMSO. The stock was diluted 1:5 to the top concentration of 2 mM in 100% DMSO. For IC50 determination, serial 1:3.16 dilutions were prepared in 100% DMSO by diluting 20 μL into 43.5 μL of DMSO for 8 concentrations. Each prepared DMSO solution were further diluted 1:500 in the cell culture media to obtain the 2× dosing solutions. The final concentrations of tested compounds in the cell culture media ranged from 0.632 nM to 2000 nM.
MV4-11 cells were cultured in IMDM with 10% FBS and 1× Penicillin-Streptomycin at 5% CO2 and 37° C. A cell suspension was prepared containing 15,000 cells/ml in the culture medium and 100 μL of this suspension was added per well to a 96-well cell culture plate. Then, 100 μL of 2× dosing media containing test compounds were added bringing the total volume to 200 μL. These cells were cultured for 72 hours at 37° C. and 5% CO2 in a humidified incubator.
After 72 hours, the cultured cells were mixed and 100 μL was transferred to a 96-well black plate. Cell Titer Glo (100 μl) was then added to this plate. The plate was mixed with shaking for 15 mins at RT, the luminescence was then measured using Tecan Spark 20M spectrophotometer. Cell Viability (%) was determined by RLU of test/RLU average vehicle control*100 and % max inhibition was determined by 100−(% cell viability remaining at the top concentration of compound).

Structure (SMILES)	IC50
CC(C)N(C(=O)c1cc(F)ccc1Oc1cncnc1N1CC2(CCN(C[C@@H]3CC[C@@H](NS(C)(=O)=O)CO3)CC2)C1)C1CC(F)(F)C1 [Example 112, N-(3,3-Difluorocyclobutyl)-5-fluoro-N-isopropyl-2-((4-(7-(((2S,5R)-5-(methylsulfonamido)tetrahydro-2H-pyran-2-yl)methyl)-2,7-diazaspiro[3.5]nonan-2-2-yl)pyrimidin-5-yl)oxy)benzamide]	< 100 nM
Cc1nc(S(=O)(=O)N[C@@H]2CC[C@@H](CN3CCC4(CC3)CN(c3ncncc3Oc3ccc(F)cc3C(=O)N(C(C)C)[C@@H]3CCOC3)C4)OC2)cs1 [Example 133, 5-Fluoro-N-isopropyl-2-((4-(7-(((2S,5R)-5-((2-methylthiazole)-4-sulfonamido)tetrahydro-2H-pyran-2-yl)methyl)-2,7-diazaspiro[3.5]nonan-2-yl)pyrimidin-5-yl)oxy)-N-((R)-tetrahydrofuran-3-yl)benzamide]	< 100 nM
Cc1nc(S(=O)(=O)N[C@@H]2CC[C@@H](CN3CCC4(CC3)CN(c3ncncc3Oc3ccc(F)cc3C(=O)N(C(C)C)[C@H]3CCOC3)C4)OC2)cs1 [Example 135, 5-Fluoro-N-isopropyl-2-((4-(7-(((2S,5R)-5-((2-methylthiazole)-4-sulfonamido)tetrahydro-21H-pyran-2-yl)methyl)-2,7-diazaspiro[3.5]nonan-2-yl)pyrimidin-5-yl)oxy)-N-((S)-tetrahydrofuran-3-yl)benzamide]	< 100 nM
CC(C)N(C)C(=O)c1cc(F)ccc1Oc1cncnc1N1CC2(CCN(C[C@@H]3CC[C@@H](NS(=O)(=O)c4cnn(C)c4)CO3)CC2)C1 [Example 139, 5-Fluoro-N-isopropyl-N-methyl-2-((4-(7-(((2S,5R)-5-((1-methyl-1H-pyrazole)-4-sulfonamido)tetrahydro-2H-pyran-2-yl)methyl)-2,7-diazaspiro[3.5]nonan-2-yl)pyrimidin-5-yl)oxy)benzamide]	100 to 1000 nM
CC(C)N(CC(F)F)C(=O)c1cc(F)ccc1Oc1nncnc1N1CC2(CCN(C[C@@H]3CC[C@@H](NS(=O)(=O)c4cnn(C)c4)CO3)CC2)C1 [Example 187, N-(2,2-Difluoroethyl)-5-fluoro-N-isopropyl-2-((5-(7-(((2S,5R)-5-((1-methyl-1H-pyrazole)-4-sulfonamido)tetrahydro-2H-pyran-2-yl)methyl)-2,7-diazaspiro[3.5]nonan-2-yl)-1,2,4-triazin-6-yl)oxy)benzamide]	< 100 nM
CC(C)N(CC(F)(F)F)C(=O)c1cc(F)ccc1Oc1nncnc1N1CC2(CCN(C[C@@H]3CC[C@@H](NS(=O)(=O)c4cnn(C)c4)CO3)CC2)C1 [Example 192, 5-Fluoro-N-isopropyl-2-((5-(7-(((2R,5S)-5-((1-methyl-1H-pyrazole)-4-sulfonamido)tetrahydro-2H-pyran-2-yl)methyl)-2,7-diazaspiro[3.5]nonan-2-yl)-1,2,4-triazin-6-yl)oxy)-N-(2,2,2-trifluoroethyl)benzamide]	< 100 nM
CC(C)N(C(=O)c1cc(F)ccc1Oc1nncnc1N1CC2(CCN(C[C@@H]3CC[C@@H](NS(=O)(=O)c4cnn(C)c4)CO3)CC2)C1)C(C)C [Example 197, 5-Fluoro-N,N-diisopropyl-2-((5-(7-(((2S,5R)-5-((1-methyl-1H-pyrazole)-4-sulfonamido)tetrahydro-2H-pyran-2-yl)methyl)-2,7-diazaspiro[3.5]nonan-2-yl)-1,2,4-triazin-6-yl)oxy)benzamide]	< 100 nM
CC(C)N(C(=O)c1cc(F)ccc1Oc1cncnc1N1CC2(CCN(C[C@@H]3CC[C@@H](NS(=O)(=O)N4CCC[C@H]4C)CO3)CC2)C1)[C@@H]1CCOC1 [Example 204, 5-Fluoro-N-isopropyl-2-((4-(7-(((2S,5R)-5-(((R)-2-methylpyrrolidine)-1-sulfonamido)tetrahydro-2H-pyran-2-yl)methyl)-2,7-diazaspiro[3.5]nonan-2-yl)pyrimidin-5-yl)oxy)-N-((R)-tetrahydrofuran-3-yl)benzamide]	< 100 nM
CC(C)N(C(=O)c1cc(F)ccc1Oc1cncnc1N1CC2(CCN(C[C@@H]3CC[C@@H](NS(=O)(=O)N4CCC[C@@H]4C)CO3)CC2)C1)[C@@H]1CCOC1 [Example 205, 5-Fluoro-N-isopropyl-2-((4-(7-(((2S,5R)-5-(((S)-2-methylpyrrolidine)-1-sulfonamido)tetrahydro-2H-pyran-2-yl)methyl)-2,7-diazaspiro[3.5]nonan-2-yl)pyrimidin-5-yl)oxy)-N-((R)-tetrahydrofuran-3-yl)benzamide]	< 100 nM
CC(C)N(C(=O)c1cc(F)ccc1Oc1cncnc1N1CC2(CCN(C[C@@H]3CC[C@@H](NS(=O)(=O)N4CCC[C@@H]4C)CO3)CC2)C1)C1CCOC1 (stereo partly drawn) [Example 206, 5-Fluoro-N-isopropyl-2-((4-(7-(((2S,5R)-5-(((S)-2-methylpyrrolidine)-1-sulfonamido)tetrahydro-2H-pyran-2-yl)methyl)-2,7-diazaspiro[3.5]nonan-2-yl)pyrimidin-5-yl)oxy)-N-((S)-tetrahydrofuran-3-yl)benzamide]	< 100 nM

The next lines start with the values.

IC50	Structure (SMILES)
< 100 nM	CC(C)N(C)C(=O)c1cc(F)ccc1Oc1cncnc1N1CC2(CCN(C[C@@H]3CC[C@@H](NS(=O)(=O)c4ccn(C)n4)CO3)CC2)C1 [Example 53, Fluoro-N-isopropyl-N-methyl-2-((4-(7-(((2S,5R)-5-((1-methyl-1H-pyrazole)-3-sulfonamido)tetrahydro-2H-pyran-2-yl)methyl)-2,7-diazaspiro[3.5]nonan-2-yl)pyrimidin-5-yl)oxy)benzamide]
< 100 nM	Cc1nc(S(=O)(=O)N[C@@H]2CC[C@@H](CN3CCC4(CC3)CN(c3ncncc3Oc3ccc(F)cc3C(=O)N(C)C(C)C)C4)OC2)cs1 [Example 54, 5-Fluoro-N-isopropyl-N-methyl-2-((4-(7-(((2S,5R)-5-((2-methylthiazole)-4-sulfonamido)tetrahydro-2H-pyran-2-yl)methyl)-2,7-diazaspiro[3.5]nonan-2-yl)pyrimidin-5-yl)oxy)benzamide]
< 100 nM	CCN(C(=O)c1cc(F)ccc1Oc1cncnc1N1CC2(CCN(C[C@@H]3CC[C@@H](NS(=O)(=O)C4CCOCC4)CO3)CC2)C1)C(C)C [Example 67, N-Ethyl-5-fluoro-N-isopropyl-2-((4-(7-(((2S,5R)-5-((tetrahydro-2H-pyran)-4-sulfonamido)tetrahydro-2H-pyran-2-yl)methyl)-2,7-diazaspiro[3.5]nonan-2-yl)pyrimidin-5-yl)oxy)benzamide]
< 100 nM	CCN(C(=O)c1cc(F)ccc1Oc1cncnc1N1CC2(CCN(C[C@@H]3CC[C@@H](NS(=O)(=O)N4CC(F)(F)C4)CO3)CC2)C1)C(C)C [Example 70, 2-((4-(7-(((2S,5R)-5-((3,3-Difluoroazetidine)-1-sulfonamido)tetrahydro-2H-pyran-2-yl)methyl)-2,7-diazaspiro[3.5]nonan-2-yl)pyrimidin-5-yl)oxy)-N-ethyl-5-fluoro-N-isopropylbenzamide]
< 100 nM	CCN(C(=O)c1cc(F)ccc1Oc1cncnc1N1CC2(CCN(C[C@@H]3CC[C@@H](NS(=O)(=O)c4ccc(=O)n(C)c4)CO3)CC2)C1)C(C)C [Example 74, N-Ethyl-5-fluoro-N-isopropyl-2-((4-(7-(((2S,5R)-5-((1-methyl-6-oxo-1,6-dihydropyridine)-3-sulfonamido)tetrahydro-2H-pyran-2-yl)methyl)-2,7-diazaspiro[3.5]nonan-2-yl)pyrimidin-5-yl)oxy)benzamide]
< 100 nM	CC(C)N(C(=O)c1cc(F)ccc1Oc1cncnc1N1CC2(CCN(C[C@@H]3CC[C@@H](NS(=O)(=O)C4CCOCC4)CO3)CC2)C1)C(C)C [Example 79]
< 100 nM	CC(C)N(C(=O)c1cc(F)ccc1Oc1cncnc1N1CC2(CCN(C[C@@H]3CC[C@@H](NS(=O)(=O)c4ccc(=O)n(C)c4)CO3)CC2)C1)C(C)C [Example 92, 5-Fluoro-N,N-diisopropyl-2-((4-(7-(((2S,5R)-5-((1-methyl-6-oxo-1,6-dihydropyridine)-3-sulfonamido)tetrahydro-2H-pyran-2-yl)methyl)-2,7-diazaspiro[3.5]nonan-2-yl)pyrimidin-5-yl)oxy)benzamide]
< 100 nM	CC(C)N(CC(F)F)C(=O)c1cc(F)ccc1Oc1cncnc1N1CC2(CCN(C[C@@H]3CC[C@@H](NS(=O)(=O)C4CCOCC4)CO3)CC2)C1 [Example 98, N-(2,2-Difluoroethyl)-5-fluoro-N-isopropyl-2-((4-(7-(((2S,5R)-5-((tetrahydro-2H-pyran)-4-sulfonamido)tetrahydro-2H-pyran-2-yl)methyl)-2,7-diazaspiro[3.5]nonan-2-yl)pyrimidin-5-yl)oxy)benzamide]
< 100 nM	CCn1cc(S(=O)(=O)N[C@@H]2CC[C@@H](CN3CCC4(CC3)CN(c3ncncc3Oc3ccc(F)cc3C(=O)N(CC(F)F)C(C)C)C4)OC2)cn1 [Example 106, N-(2,2-Difluoroethyl)-2-((4-(7-(((2S,5R)-5-((1-ethyl-1H-pyrazole)-4-sulfonamido)tetrahydro-2H-pyran-2-yl)methyl)-2,7-diazaspiro[3.5]nonan-2-yl)pyrimidin-5-yl)oxy)-5-fluoro-N-isopropylbenzamide]
